Some results are limits rather than exact numbers.

Voltage-dependent N-type calcium channel subunit alpha-1B, sequence (Q00975 whole entry): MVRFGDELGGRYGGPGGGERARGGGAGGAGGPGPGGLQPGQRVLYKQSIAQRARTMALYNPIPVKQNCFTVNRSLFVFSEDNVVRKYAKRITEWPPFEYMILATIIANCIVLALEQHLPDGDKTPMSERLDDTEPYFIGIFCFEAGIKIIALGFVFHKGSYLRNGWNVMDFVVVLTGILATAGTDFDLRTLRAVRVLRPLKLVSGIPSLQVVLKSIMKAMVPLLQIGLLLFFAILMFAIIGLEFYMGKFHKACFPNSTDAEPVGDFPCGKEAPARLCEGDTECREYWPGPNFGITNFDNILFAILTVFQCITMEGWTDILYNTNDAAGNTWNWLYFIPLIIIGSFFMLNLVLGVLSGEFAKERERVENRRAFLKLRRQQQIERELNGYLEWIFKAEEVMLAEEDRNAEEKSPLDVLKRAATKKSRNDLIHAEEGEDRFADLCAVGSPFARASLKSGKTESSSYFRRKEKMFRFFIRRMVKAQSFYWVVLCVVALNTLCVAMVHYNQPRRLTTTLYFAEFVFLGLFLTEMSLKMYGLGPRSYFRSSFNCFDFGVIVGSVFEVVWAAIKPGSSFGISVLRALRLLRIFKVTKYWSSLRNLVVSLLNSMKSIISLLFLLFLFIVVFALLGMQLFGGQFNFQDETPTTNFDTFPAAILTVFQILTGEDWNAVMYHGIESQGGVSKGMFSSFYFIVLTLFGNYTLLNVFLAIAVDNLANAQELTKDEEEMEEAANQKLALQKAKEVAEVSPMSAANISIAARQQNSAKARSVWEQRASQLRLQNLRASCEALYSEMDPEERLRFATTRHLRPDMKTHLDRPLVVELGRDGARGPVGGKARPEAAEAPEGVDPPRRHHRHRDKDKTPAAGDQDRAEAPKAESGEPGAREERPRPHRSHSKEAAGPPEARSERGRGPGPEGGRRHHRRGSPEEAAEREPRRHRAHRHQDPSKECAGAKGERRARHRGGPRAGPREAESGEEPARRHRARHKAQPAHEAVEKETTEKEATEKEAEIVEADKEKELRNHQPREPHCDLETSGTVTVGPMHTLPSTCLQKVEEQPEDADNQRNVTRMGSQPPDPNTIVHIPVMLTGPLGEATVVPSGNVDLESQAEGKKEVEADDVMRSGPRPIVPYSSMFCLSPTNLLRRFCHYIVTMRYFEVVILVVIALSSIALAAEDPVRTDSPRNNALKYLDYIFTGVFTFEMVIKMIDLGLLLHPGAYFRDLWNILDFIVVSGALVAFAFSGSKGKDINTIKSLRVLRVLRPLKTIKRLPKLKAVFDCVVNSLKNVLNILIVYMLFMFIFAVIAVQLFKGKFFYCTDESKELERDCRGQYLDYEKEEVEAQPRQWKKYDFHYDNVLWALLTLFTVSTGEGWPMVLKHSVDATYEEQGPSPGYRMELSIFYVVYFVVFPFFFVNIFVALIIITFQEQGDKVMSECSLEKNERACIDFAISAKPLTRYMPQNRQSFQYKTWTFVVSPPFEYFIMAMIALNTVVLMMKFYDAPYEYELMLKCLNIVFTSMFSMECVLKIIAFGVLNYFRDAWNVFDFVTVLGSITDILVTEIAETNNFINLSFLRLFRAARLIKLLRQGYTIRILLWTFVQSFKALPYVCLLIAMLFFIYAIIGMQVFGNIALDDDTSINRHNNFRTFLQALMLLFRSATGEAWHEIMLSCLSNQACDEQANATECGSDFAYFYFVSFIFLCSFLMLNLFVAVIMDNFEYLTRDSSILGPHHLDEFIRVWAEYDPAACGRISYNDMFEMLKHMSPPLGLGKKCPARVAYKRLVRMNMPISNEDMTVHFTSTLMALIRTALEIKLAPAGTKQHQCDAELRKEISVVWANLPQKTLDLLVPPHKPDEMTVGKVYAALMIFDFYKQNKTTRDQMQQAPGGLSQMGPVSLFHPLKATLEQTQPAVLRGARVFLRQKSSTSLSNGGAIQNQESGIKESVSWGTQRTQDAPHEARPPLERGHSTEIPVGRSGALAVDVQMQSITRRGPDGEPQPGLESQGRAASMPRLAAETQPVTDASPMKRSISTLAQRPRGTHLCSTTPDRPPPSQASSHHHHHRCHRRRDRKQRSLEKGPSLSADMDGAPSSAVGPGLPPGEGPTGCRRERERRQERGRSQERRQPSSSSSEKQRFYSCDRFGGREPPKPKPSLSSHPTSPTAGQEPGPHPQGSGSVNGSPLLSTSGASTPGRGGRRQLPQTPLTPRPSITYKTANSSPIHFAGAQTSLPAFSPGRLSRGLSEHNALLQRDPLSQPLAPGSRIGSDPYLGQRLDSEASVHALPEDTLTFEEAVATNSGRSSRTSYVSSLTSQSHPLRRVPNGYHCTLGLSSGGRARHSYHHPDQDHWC

This assay concerns the target Voltage-dependent N-type calcium channel subunit alpha-1B (Homo sapiens, UniProt Q00975). Put plainly: Inhibition of N-type calcium channel in IMR-32 human neuroblastoma cells. It counts as cell-based.
For `Oc1c(CN2CCCCCC2)ccc2c1CCN(CCCCCC(c1ccccc1)c1ccccc1)C2`, the IC50 – broadly, the concentration that inhibits the measured activity by half – was 1.1 µM.
The result for `Oc1c(CN2CCCCCC2)ccc2c1CCN(CCCCC=C(c1ccccc1)c1ccccc1)C2` reads 2.5 µM; that for `Oc1c(CN2CCCCC2)cc(Cc2cc(CN3CCCCC3)c(O)c3ncccc23)c2ccncc12`, 4.4 µM; that for `COc1ccc(CCCCN2CCc3c(ccc(CN4CCCCCC4)c3O)C2)cc1`, 10 µM.
Under `Oc1c(CN2CCCCCC2)ccc2c1CCN(CCCC(c1ccccc1)c1ccccc1)C2` stands 0.46 µM.
As to `Oc1c(CN2CCCCCC2)ccc2cnccc12`, the IC50 stood at 35 µM.
With `Oc1c(CN2CCCCCC2)ccc2c1CCN(CCCCc1ccccc1)C2`, the IC50 is 15 µM.
Under `CN1CCc2c(ccc(CN3CCCCCC3)c2O)C1` stands over 100 µM.
The result for `Oc1c(CN2CCCCCC2)ccc2c1CCN(CCC(c1ccccc1)c1ccccc1)C2` reads 7.4 µM.
Under `Oc1c(CN2CCCCCC2)ccc2c1CCN(CCCCc1ccc(F)cc1)C2` stands 5.1 µM; under `Oc1c(CN2CCCCCC2)ccc2c1CCN(CCCCC(c1ccccc1)c1ccccc1)C2`, 4.8 µM.

Values taken from ChEMBL document CHEMBL1130950, “Synthesis and structure-activity relationship of substituted 1,2,3,4-tetrahydroisoquinolines as N-type calcium channel blockers” (Bioorg Med Chem Lett, 1998).
